Source: patent US6103709A (priority 1998, dated 2000)
“Also recorded” adds a separate entry of the source.

Legend:
[1] = system: vitamin D-deficient chick; assay: Intestinal Ca2+ absorption (ICA) in vitamin D-deficient chick; type: in vivo; conditions: i.m.; for Classic Vit D Responses ICA: relative to 100 pmol 1α,25(OH)2 D3 = 100%, 12 h before assay; for ICA (in words): vitamin D-deficient chick
Method: A primary fundamental physiological property of vitamin D and particularly 1α,25(OH)2 D3 is its ability to stimulate the intestinal absorption of calcium and facilitate the availability of dietary calcium to the organism. Intestinal absorption of the calcium is measured by the intestinal calcium absorption (ICA) assay, developed in the model of vitamin-D deficient chicks. The ICA assay was used to determine the relative capability of the tested analog to stimulate intestinal Ca^2+ absorption.
Results of the testing of the analogs of the invention in vivo by the ICA and IBM assays are shown in FIG. 9 which illustrates the capability of analogs LO, EV and HR to stimulate intestinal Ca^2+ absorption (ICA) and bone Ca^2+ mobilizing activity (BCM). In this study, the analogs of 1α,25(OH) were given i.m. to vitamin D-deficient chicks 12 hours before the assay began. The activity produced by 100 pmol of 1α,25(OH)2 D3 was set to be 100% for both ICA and BCM. The dose of the analogs required to achieve a biological response for either ICA or BCM equivalent to the 100 pmol dose of 1α,25(OH)2 D3 was calculated and converted to a percentage. Results are expressed as mean +SE of groups of seven chicks. Each assay included a negative control (-D), that is no vitamin D was present, and a positive control, where vitamin D3 (+D3) was present in 3.25 nmol. […] 1α,25(OH)2 D3 and analogs LO [14α,15α-methano-1α,25(OH)2 D3 ], EV [22-(m(dimethylhydroxymethyl)phenyl)-23,24,25,26,27-pentanor-1α-OH-D3 ] and HR [(22R)-1,25(OH)2 -22,23-diene-D3 ] were administered in 0.0065, 0.065, 0.65 and 6.5 nmol as shown.
In Vivo Assays of Intestinal Calcium Absorption and Bone Calcium Mobilization
This example describes assays used for determination of analogs biological activity in intestinal calcium absorption (ICA) and bone calcium mobilization (BCM) assays.
ICA and BCM were measured in vivo in the vitamin D-deficient chick model system according to Biochem. Pharmacol., 18: 2347 (1969).
Twelve hours before assay, the chickens, which had been placed on a zero-calcium diet 48 h before assay, were injected intramuscularly with the vitamin metabolite 1α,25(OH)2 D3 or analog (1-10,000 pmoles) dissolved in 0.1 mL of ethanol/1,2-propanediol (1:1, v/v). At the time of assay, 4.0 mg of ^40 Ca^2+ +5 μCi of ^45 Ca^2+ (New England Nuclear) were placed in the duodenum of the birds lightly anesthetized with ether. After 30 min, the birds were decapitated and the blood was collected.
The radioactivity content, which is a measure of ICA, of 0.2 mL of serum was measured in a liquid scintillation counter (Beckman LS8000) to determine the amount of ^45 Ca^2+ absorbed.

[2] = system: intestinal Ca2+ transport in perfused chick duodena (transcaltachia); assay: Transcaltachia assay (rapid stimulation of 45Ca2+ transport in perfused duodena); conditions: for Rapid Trans-Caltachia, relative to 1α,25(OH)2 D3: 1α,25(OH)2 D3 = 100; for stimulation of transcaltachia (in words, FIG. 11): perfusion with 300 pM or 650 pM analog, reference 650 pM 1α,25(OH)2 D3, within first four minutes
Method: Duodenal loops from normal, vitamin D-replete chicks were lumenally perfused with ^45 Ca^2+ (5 uCi/ml of buffer). To establish basal transport rates, celiac artery of controls were perfused with control medium for the first 20 min. The duodena were then either re-exposed to control medium containing the vehicle ethanol (0.005%, final concentration) through the celiac artery, or vascularly perfused with 300 pM or 650 pM agonist analogs JM or JN or with 650 pM of a control reference compound 1α,25(OH)2 D3. The venous effluent was collected at 2 min intervals for liquid scintillation spectrophotometry of the ^45 Ca^2+. […] Values represent mean ±SEM for n=4 in each group.
The data shown in FIG. 13 are the mean ±SEM from 4-5 duodena. […] Open circles represent the negative control receiving no treatment with 1α,25(OH)2 D3 or analog. […] Data represent the ratio of treated to basal values ±SEM extracted from a time-course plot (as in panel A) at 32 minutes.
This example describes the assay used for testing rapid response transcaltachia described in J. Biol. Chem, 268: 13811-13819 (1993).
White Leghorn cockerels (Hyline International, Lakeview, Calif.) were obtained on the day of hatch and maintained on a vitamin D-supplemented diet (1.0% calcium and 1.0% phosphorus; O. H. Kruse Grain and Milling, Ontario, Calif.) for 5-6 weeks to prepare normal vitamin D3 -replete chicks for use in the transcaltachia studies.
Measurements of ^45 Ca^2+ transport were carried out in perfused chick duodena. Normal vitamin D-replete chicks weighing approximately 500 g were anesthetized with 0.3 ml per 100 g Chloropent (Fort Dodge, Iowa), and the duodenal loop was surgically exposed. The celiac vein and blood vessels branching off from the celiac artery were ligated before cannulation of the celiac artery itself, and vascular perfusion was immediately initiated. Both the celiac artery and vein of the duodena were perfused with modified Grey's balanced salt solution (GBSS) +0.9 mM Ca which was oxygenated with 95% O2 and 5% CO2. A basal transport rate was established by perfusion with control medium for 20 minutes after the intestinal lumen was filled with ^45 Ca^2+. The tissue was then exposed to 1α,25(OH)2 D3 or analogs or reexposed to control medium for an additional 40 minutes. The vascular perfusate was collected at 2 min intervals during the last 10 min of the basal and during the entire treatment period. Duplicate 100 μl aliquots were taken for determination of the ^45 Ca^2+ levels by liquid scintillation spectrometry.

SMILES	Classic Vit D Responses ICA [1]	other results
C=C1/C(=C\C=C2/CCC[C@]3(C)[C@@H]([C@H](C)Cc4cccc(O)c4)CC[C@@H]23)C[C@@H](O)C[C@@H]1O [DE]	0.3%	ICA (in words) [1]: show stimulating activity in both ICA and BCM assays
C=C1/C(=C\C=C2/CCC[C@]3(C)[C@@H]([C@H](C)CCCC(C)(C)O)CC[C@@H]23)C[C@@H](O)C[C@H]1O [HL]	< 0.1%	transcaltachia caused by 1α,25(OH)2 D3 in presence of HL ([2]; HL 12 pM in combination with 1α,25(OH)2 D3 300 pM): particularly observable; inhibition of 1α,25(OH)2 D3-stimulated transcaltachia ([2]; HL 60 pM in advance of 300 pM 1α,25(OH)2 D3): clear inhibition of transcaltachia; inhibition of 1α,25(OH)2 D3-stimulated transcaltachia ([2]; HL 400 pM, 1α,25(OH)2 D3 300 pM): clearly inhibited; inhibition of 1α,25(OH)2 D3-stimulated transcaltachia ([2]; HL administered before 1α,25(OH)2 D3 / FIG. 13 overall): almost completely inhibited; also recorded: potent ability of 1β,25(OH)2 D3 (HL) to block or antagonize
C[C@H](CCCC(C)(C)O)[C@H]1CC[C@H]2C3=CC=C4C[C@@H](O)C[C@H](O)[C@@]4(C)[C@H]3CC[C@]12C [JO]	0.6%	Rapid Trans-Caltachia, relative to 1α,25(OH)2 D3 [2]: 50%
CC1=C(C=C=C2CCC[C@]3(C)[C@@H]([C@H](C)CCCC(C)(C)O)CC[C@@H]23)C[C@@H](O)C[C@@H]1O [JW]	0.05%	
C=C1CC[C@H](O)C/C1=C/C=C1\CCC[C@]2(C)[C@@H]([C@H](C)Cc3cccc(O)c3)CC[C@@H]12 [JY]	< 0.05%	
C[C@H](CCCC(C)(C)O)[C@H]1CC[C@H]2C3=CC=C4C[C@@H](O)C[C@H](O)[C@]4(C)[C@@H]3CC[C@]12C [JP]	0.5%	Rapid Trans-Caltachia, relative to 1α,25(OH)2 D3 [2]: 60%
CC1=C(/C=C\C2=CCC[C@@]3(C)[C@@H]2CC[C@@H]3[C@H](C)CCCC(C)(C)O)C[C@@H](O)C[C@@H]1O [GF]	1.5%	
C[C@H](CCCC(C)(C)O)[C@H]1CC[C@H]2C3=CC=C4C[C@@H](O)C[C@H](O)[C@]4(C)[C@H]3CC[C@]12C [JM]	1.8%	Rapid Trans-Caltachia, relative to 1α,25(OH)2 D3 [2]: 60%; stimulation of transcaltachia (in words, FIG. 11) [2]: comparable or better than the reference compound
C=C1/C(=C\C=C2/CCC[C@]3(C)[C@@H]([C@H](C)C=C=CC(C)(C)O)CC[C@@H]23)C[C@@H](O)C[C@@H]1O [HR]	12%	
C=C1/C(=C\C=C2/CCC[C@]3(C)[C@@H]([C@H](C)C=C=CC(C)(C)O)CC[C@@H]23)C[C@@H](O)C[C@@H]1O [HQ]	2.5%	
C=C1/C(=C\C=C2/CCC[C@]3(C)[C@@H]([C@H](C)CCCC(C)(C)O)C[C@@H]4C[C@@]243)C[C@@H](O)C[C@@H]1O [LO]	30%	ICA (in words) [1]: reasonable stimulator of intestinal Ca^2+ absorption (ICA)
C=C1/C(=C\C=C2/CCC[C@]3(C)[C@@H]([C@H](C)Cc4cccc(C(C)(C)O)c4)CC[C@@H]23)C[C@@H](O)C[C@@H]1O [EV]	30%	ICA (in words) [1]: show stimulating activity in both ICA and BCM assays
CC1=C(C=C=C2CCC[C@]3(C)[C@@H]([C@H](C)CCCC(C)(C)O)CC[C@@H]23)C[C@@H](O)C[C@@H]1O [JV]	0.02%	
C=C1CC[C@H](O)C/C1=C/C=C1\CCC[C@]2(C)[C@@H]([C@H](C)Cc3ccc(O)cc3)CC[C@@H]12 [JX]	< 0.05%	
C[C@H](CCCC(C)(C)O)[C@H]1CC[C@H]2C3=CC=C4C[C@@H](O)C[C@H](O)[C@@]4(C)[C@@H]3CC[C@]12C [JN]	2.1%	Rapid Trans-Caltachia, relative to 1α,25(OH)2 D3 [2]: 105%; stimulation of transcaltachia (in words, FIG. 11) [2]: comparable or better than the reference compound
C=C1/C(=C\C=C2/CCC[C@]3(C)[C@@H]([C@H](C)Cc4ccc(O)cc4)CC[C@@H]23)C[C@@H](O)C[C@@H]1O [DF]	0.04%	
